Source: patent US20210188763A1, “COMPOUNDS AND METHODS FOR HEMATOPOIETIC REGENERATION” (The Regents of the University of California, priority 2017, published 2021)

How the values were obtained:
Rac1 [1] = test: Rac1 activation assay (G-LISA); assay type: cell-based; conditions: cells incubated 2 minutes at 1 and 10 μg/mL
Protocol: Cell cultures were incubated with each tested compound for 2 minutes at concentrations of 1 and 10 μg/mL, after which the cells were tested for Rac1 activation using a G-LISA activation assay. The cells were lysed and the lysates introduced into wells containing Rac-GTP-binding protein, then sequentially incubated with anti-Rac1 antibody and a horseradish peroxidase-linked secondary antibody. The amount of horseradish peroxidase was then quantitated to evaluate the Rac1 activation potency of each compound studied.

[2] = test system: hematopoietic colony formation; test: Hematopoietic colony formation (CFC assay); assay type: cell-based
Protocol: CFC assays (colony-forming unit-granulocyte monocyte (CFU-GM), burst-forming unit-erythroid (BFU-E), and colony-forming unit-granulocyte erythroid monocyte megakaryocyte (CFU-GEMM) were performed using MethoCult GF M3434 (Stemcell Technologies), as we have previously described^1,5. For all in vitro assays, BM CD34^−KSL cells, KSL cells, and Lin cells were cultured in TSF media (IMDM, 10% FBS, 1% pen-strep, 20 ng/mL recombinant mouse Thrombopoietin (TPO), 125 ng/mL recombinant mouse Stem Cell Factor (SCF), 50 ng/mL recombinant mouse Flt3 ligand) and treated as described. Recombinant mouse SCF, Flt-3 ligand, and TPO were purchased from R&D Systems. For competitive repopulation assays, BM cells were isolated from donor 10-12 week old female CD45.2^+ mice. Recipient 10 week old female CD45.1^+ B6.SJL mice were irradiated with 950 cGy TBI using a Cs137 irradiator, and donor BM cells were administered via tail vein injection along with a competing dose of 1×10^5 non-irradiated host BM cells. Multilineage donor hematopoietic cell engraftment was measured in the PB by flow cytometry.

irradiated mice = test: Survival and HSC regeneration of irradiated mice; assay type: in vivo; conditions: for Survival of irradiated mice: lethal dose irradiation (750 cGy)
Source text: (§1) A) CFU-GEMMs produced by TSF media vs. TSF+GJ001 (p=0.001). B) Percentage of BM KSL cells expressing Rac1GTP (p=0.008). C) Survival of mice irradiated with 750 cGy followed by treatment with DJ001 or vehicle (p=0.0007). D) % BM KSL cells (blue) and % ckit^+sca-1^−lin^− progenitors (gray) at day +21 in irradiated mice.
10 week old female C57BL/6 mice were irradiated with 750 cGy TBI, which is lethal for approximately 50% of C57BL/6 mice by day +30 (LD50/30), using a Shepherd Cesium-137 irradiator. Twenty four hours post-irradiation, mice were administered daily subcutaneous injections of 5 mg/kg DJ001 (or DJ009) or vehicle in a volume of 100 μL for 10 days. DJ001 injections were prepared in PBS, 0.5% Tween 80, and 10% DMSO. Corresponding vehicle injections contained PBS, 10% DMSO and 0.5% Tween 80. PB complete blood counts were measured using a Hemavet 950 instrument (Drew Scientific) at day +10 post-irradiation. For hematopoietic analysis, BM cells were collected at day +10 post-irradiation. To study whether DJ001 increased survival rates through activation of RAC signaling, the RAC inhibitor, EHT1864 (Selleckchem), was dissolved in PBS and administered intraperitoneally, 40 mg/kg every other day, to 750 cGy irradiated mice until day +10. For DJ009 studies, ten week old female C57BL/6 mice were irradiated with 550 cGy TBI and then given daily subcutaneous injections of 5 mg/kg of DJ009 or vehicle in a volume of 100 μL for 3 days. DJ009 injections were prepared in PBS, 0.5% Tween 80, and 10% DMSO. Vehicle injections contained 10% DMSO and 0.5% Tween 80. At day +3 post 550 cGy irradiation, we collected PB and BM cells for CBCs and hematopoietic analysis. Exemplary results of this assay are depicted in FIG. 8 and FIG. 17.

Rac1 [3] = test: Rac1 signaling in HSCs (BM KSL cells expressing Rac1GTP); assay type: cell-based
Protocol: as §1
Intracellular flow cytometric analysis was performed on irradiated (300 cGy) or non-irradiated, sorted KSL cells after treatment with 1 μg/mL DJ001 or control (equal volumes of DMSO) for 24 hours. At 24 hours after irradiation, cells were fixed with 4% PFA for 10 min, followed by permeabilization using 0.25% saponin in PBS. Cells were washed again and stained with antibody at the recommended concentrations for 30 minutes at room temperature. Intracellular antibodies and phospho-flow antibodies used were: FITC-conjugated anti-BCL-XL (Abcam #ab26148), active RAC1-GTP antibody (NewEast Biosciences #26903), and anti-PAK1 (phospho S144)+PAK2 (phospho S141)+PAK3 (phospho S154) antibody (Abcam #ab40795).

PTPRS = target: T1, PTPRS (Homo sapiens, UniProt Q13332); test: In vitro phosphatase assay (modified Malachite Green Assay); assay type: biochemical; conditions: substrate titration of PTPσ; Vmax inhibited, Km constant
T1 construct: The two interacellular catalytic domains (D1D2) of PTPRS were cloned into a pET28a vector; made in house; host or cells: E. coli BL21
T1 sequence (Q13332 1304-1948 limits assumed): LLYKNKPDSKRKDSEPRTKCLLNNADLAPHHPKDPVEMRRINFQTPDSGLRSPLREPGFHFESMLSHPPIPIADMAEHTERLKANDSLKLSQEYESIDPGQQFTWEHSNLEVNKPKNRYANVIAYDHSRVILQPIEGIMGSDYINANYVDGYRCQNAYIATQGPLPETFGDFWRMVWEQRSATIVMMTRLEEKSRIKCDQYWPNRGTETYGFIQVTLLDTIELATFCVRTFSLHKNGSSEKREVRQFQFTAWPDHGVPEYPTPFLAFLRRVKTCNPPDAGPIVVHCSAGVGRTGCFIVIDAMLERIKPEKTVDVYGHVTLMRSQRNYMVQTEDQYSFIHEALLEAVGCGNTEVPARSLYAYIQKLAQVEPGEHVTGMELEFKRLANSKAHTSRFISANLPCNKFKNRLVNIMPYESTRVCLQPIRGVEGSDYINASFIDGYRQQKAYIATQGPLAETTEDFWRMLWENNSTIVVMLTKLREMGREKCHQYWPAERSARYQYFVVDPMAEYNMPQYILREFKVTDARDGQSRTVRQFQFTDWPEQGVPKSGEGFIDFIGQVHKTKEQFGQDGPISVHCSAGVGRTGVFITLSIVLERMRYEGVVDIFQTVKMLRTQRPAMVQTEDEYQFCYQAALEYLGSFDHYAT
Protocol: The two interacellular catalytic domains (D1D2) of PTPRS were cloned into a pET28a vector and overexpressed in E. coli BL21 and purified as described in Jeon T J, et al. Structure of the Catalytic Domain of Protein Tyrosine Phosphatase Sigma in the Sulfenic Acid Form. Molecules and Cells. 2013; 36(1):55-61. doi:10.1007/s10059-013-0033-x. Enzymatic activity of PTPRS was assayed using a modified version of the Malachite Green Assay (described in Lorenz U. Protein Tyrosine Phosphatase Assays. Current protocols in immunology/edited by John E Coligan. [et al]. 2011; CHAPTER: Unit-11.7. doi:10.1002/0471142735.im1107s93) and the Tyrosine Phosphatase Assay Kit (Promega Coorperation). Unless stated otherwise, standard assays were carried out using 50 nM PTPRS protein in 1× Buffer (10 mM Tris, 5 mM MgCl2, 10 mM NaCl, 0.02% Tween) and Tyr Phosphopeptide as substrate (100 uM for FIG. 1 and 50-1200 uM in FIG. 2). […]
For IC50 determination, rates normalized relative to uninhibited controls (DMSO) were plotted against compound concentration and fitted using a four-parameter nonlinear regression curve fit ((y=[(A−D)(1+{xC−1}B)−1]+D), (Prism 6.0, Graphpad Software). For mechanism studies and determination of the enyzme's Km and Vmax, data were analyzed using a nonlinear regression fit according to classical Mechaelis-Menten kinetics model Y=Vmax*X/(Km+X) (Prism 6.0, Graphpad Software).

| Structure (SMILES) | Rac1 Activation (Rac1 [1]) | also measured |
| --- | --- | --- |
| COc1cccc(N/C=C\C(=O)c2ccccc2)c1 [DJ005] | no | – |
| O=C(/C=C\Nc1cccc(O)c1)c1ccccc1 [DJ015] | yes | – |
| O=C(/C=C\Nc1cccc(C(F)(F)F)c1)c1ccccc1 [DJ003] | yes | Hematopoietic colony formation [2]: increases hematopoietic colony formation; Survival of irradiated mice (irradiated mice): improves survival of irradiated mice |
| O=C(/C=C\Nc1cc(F)cc(F)c1)c1ccccc1 [DJ009, (Z)-3-((3,5-difluorophenyl)amino)-1-phenylprop-2-en-1-one] | yes | – |
| CC(=O)c1cccc(N/C=C\C(=O)c2ccccc2)c1 [DJ006] | no | – |
| CC(C)(C)N/C=C\C(=O)c1ccccc1 [DJ019] | no | – |
| O=C(/C=C\Nc1cccc(-c2ccccc2)c1)c1ccccc1 [DJ007] | no | – |
| O=C(/C=C\NCc1ccco1)c1ccccc1 [DJ018] | no | – |
| O=C(/C=C\Nc1cccc([N+](=O)[O-])c1)c1ccccc1 [DJ001, (Z)-3-((3-nitrophenyl)amino)-1-phenylprop-2-en-1-one] | yes | Rac1 signaling in HSCs (Rac1 [3]): activates Rac1 signaling; Mechanism of inhibition (PTPRS): classical noncompetitive inhibitor; HSC regeneration in irradiated mice (irradiated mice; irradiated mice): accelerates HSC regeneration; Survival of irradiated mice (irradiated mice): dramatically increases mice survival |
| Cc1cc(C)cc(N/C=C\C(=O)c2ccccc2)c1 [DJ011] | yes | – |
| O=C(/C=C\Nc1ccccc1)c1ccccc1 [DJ013] | yes | – |
| COc1cc(N/C=C\C(=O)c2ccccc2)cc(OC)c1 [DJ012] | yes | – |
| CN(C)c1cccc(N/C=C\C(=O)c2ccccc2)c1 [DJ008] | no | – |
| CCCCN/C=C\C(=O)c1ccccc1 [DJ017] | no | – |
| CN(C)S(=O)(=O)c1cccc(N/C=C\C(=O)c2ccccc2)c1 [DJ016] | no | – |
| Cc1cccc(N/C=C\C(=O)c2ccccc2)c1 [DJ004] | yes | – |
| CC(C)(C)[Si](C)(C)Oc1cccc(N/C=C\C(=O)c2ccccc2)c1 [DJ014] | yes | – |
| O=C(/C=C\Nc1cccc(F)c1)c1ccccc1 [DJ002] | no | – |
